Values quoted from earlier work as cited in patent US8106028B2, “MicroRNA-21 antagonists and its target PDCD4 for use in the treatment of a glioma” (Trustees of Dartmouth College, priority 2009, dated 2012).

Test system: PDCD4
Settings: breast cancer cells; Afonja, et al. (2004)

## CC1(C)CCC(C)(C)c2cc(C(=O)Nc3ccc(C(=O)O)cc3)ccc21 [Am580]
  expression of PDCD4: stimulate the expression of PDCD4
